Assay results published in patent US10010535B2, “Desferrithiocin analogs and uses thereof” (University of Florida Research Foundation, Incorporated, priority 2013, dated 2018).
Counter-ions that a name gives are not always drawn. Like-named read-outs stand apart in the source and are kept apart here.

What was measured:
[1] = Octanol-water partition, shake flask (log Papp); type: physicochemical; conditions: pH 7.4, Tris buffer
Experimental: The partition values between octanol and water (at pH 7.4, Tris buffer) were determined using a “shake flask” direct method of measuring log Papp values (Sangster et al., Octanol-Water Partition Coefficients: Fundamentals and Physical Chemistry; John Wiley and Sons: West Sussex, England, 1997; Vol. 2). The fraction of compound in the octanol is then expressed as log Papp. […] This is likely due to the presence of the aromatic nitrogen, a moderately good hydrogen bond accepter, on the DFT analogs.

[2] = Job's plot stoichiometry of Fe(III) complexes; type: binding; conditions: [DFT analog]+[Fe(III)]=1.0 mM, Tris-HCl pH 7.4; theoretical 0.667 for 2:1
Experimental: Solutions containing DFT analog/Fe(III) at different ratios were prepared such that [DFT analog]+[Fe(III)]=1.0 mM in Tris-HCl buffer at pH 7.4. The theoretical mole fraction maximum for a 2:1 DFT analog:Fe complex is 0.667 (indicated by an arrow).
In each instance, the DFT analogs formed 2:1 complexes with Fe(III). […] A 100 mM Tris HCl buffer was used to maintain the pH at 7.4. Solutions containing different DFT analog/Fe(III) ratios were prepared by mixing appropriate volumes of 1.0 mM DFT analog solution and 1.0 mM Fe(III)-nitriloacetate (NTA) in Tris-HCl buffer. The 1.0 mM Fe(III)-NTA solution was prepared immediately prior to use by dilution of a 41.6 mM Fe(III)-NTA stock solution with the Tris HCl buffer, whereas the DFT analog stock solution was prepared by dissolving the DFT analog as its monosodium salt in Tris HCl buffer at pH 7.4. The Fe(III)-NTA stock solution was prepared by mixing equal volumes of […] of FeCl3 and 180 mM trisodium NTA. The iron content of the Fe(III)-NTA solution was verified by atomic absorption spectrophotometry (AAS).

[3] = 1H NMR hydrogen-deuterium exchange study; type: physicochemical; conditions: 25° C., pH 7.0, phosphate buffer (0.1 M)
Experimental: The ratio of the (unexchanged) to the (original) was measured by the diminution of δ 6.33 (d, H-3′, J=2.3) relative to the integration of δ 6.39 (d, H-5′, J=9.0) at time points to 104 min. […] (unexchanged) to the [I-1] (original) was measured by the diminution of δ 6.41 (d, H-4′, J=2.3) relative to the integration of δ 7.54 (d, H-6′, J=2.3) at time points to 16 h. Plots of the natural log of [compound]
Quinone formation could result in redox cycling and, at a cellular level, untoward side effects. […] The exchange rate order is understandable.

[4] = test system: urinary Kim-1 excretion; conditions: for renal toxicity (Kim-1, BUN, SCr), summary: rat, in vivo; for survival of dosing period: po twice daily 237 μmol/kg/dose (474 μmol/kg/d), up to 7 d, rats with normal iron stores; for BUN and SCr / urinary Kim-1 excretion versus baseline (day 0): po twice daily 237 μmol/kg/dose × 7 d
Experimental: The compounds were administered to the rats po as their monosodium salts, prepared as described above, twice daily at a dose of 237 μmol/kg/dose (474 μmol/kg/d) for up to 7 d. The studies were performed on rats with normal iron stores. The rats were fasted overnight and were given the first dose of the compound first thing in the morning. The rats were fed ˜3 h post-dose and had access to food for ˜5 h before being fasted overnight.
The rats were housed in individual metabolic cages. […] A baseline (day 0) urine sample was collected and assessed for its Kim-1 content; each animal served as its own control. The urine was collected chilled as previously described (Bergeron et al., “Desferrithiocin Analog Iron Chelators: Iron Clearing Efficiency, Tissue Distribution, and Renal Toxicity.” Biometals, 2011, 24, 239-258).
The chilled urine was collected, vortexed, and warmed to room temperature; any sediment in the samples was allowed to settle. Kim-1 content was assessed using a Rat Kim-1 Rapid Test Kit according to the manufacturer's instructions. The result was read using a ReaScan Test Reader. […] Data are presented as the mean±the standard error of the mean; p-values were generated via a one-tailed Student's t-test in which the inequality of variances was assumed; and a p-value of <0.05 was considered significant.
Assessment of chelator-induced impaired renal function has traditionally relied on the detection of a rise in blood urea nitrogen (BUN) and/or serum creatinine (SCr). However, because of the functional reserve of the kidney, these parameters are often unreliable indicators of acute kidney injury; the ultimate answer requires histopathology. […] BioAssay Works has recently developed RenaStick, a direct lateral flow immunochromato-graphic assay, which allows for the rapid detection (less than 30 minutes) and quantitation of urinary Kim-1 (rat) or KIM-1 (human) excretion (Vaidya et al., “A Rapid Urine Test for Early Detection of Kidney Injury.” Kidney. Int. 2009, 76, 108-114). […] The studies were performed on rats with normal iron stores; each animal served as their own control.

[5] = administered twice daily; cited from earlier work
[6] = test system: urinary Kim-1 excretion; conditions: cited from earlier work; for urinary Kim-1: 237 μmol/kg twice daily
[7] = test system: iron excretion; test: Iron-clearing efficiency in iron-overloaded primates (fecal and urine samples); type: in vivo, Cebus apella monkeys; conditions: primates po / rodents po
Experimental: At least 20 half-lives, 60 days (Wood et al., “The Metabolism of Iron-Dextran Given As a Total-Dose Infusion to Iron Deficient Jamaican Subjects.” Br. J. Hamaetol. 1968, 14, 119-129), elapsed before any of the animals were used in experiments evaluating iron-chelating agents.
Briefly, the collections began 4 days prior to the administration of the test compound and continued for an additional 5 days after the compound was given. Iron concentrations were determined by flame absorption spectroscopy as presented in other publications (Bergeron et al., “A Comparative Evaluation of Iron Clearance Models.” Ann. N.Y. Acad. Sci. 1990, 612, 378-393; Bergeron et al., “Synthesis and Biological Evaluation of Naphthyldesferrithiocin Iron Chelators.” J. Med. Chem. 1996, 39, 1575-1581).
In the text below, the term “iron-clearing efficiency” (ICE) is used as a measure of the amount of iron excretion induced by a chelator. The ICE, expressed as a percent, is calculated as (compound-induced iron excretion/theoretical iron excretion)×100. To illustrate, the theoretical iron excretion after administration of one millimole of desferrioxamine B mesylate (DFO) (FIG. 3), a hexadentate chelator that forms a 1:1 complex with Fe(III), is one milli-g-atom of iron. Two millimoles of desferrithiocin (DFT) (Table 1), a tridentate iron chelator that forms a 2:1 complex with Fe(III), are required for the theoretical excretion of one milli-g-atom of iron. The theoretical iron outputs of the chelators were generated on the basis of a 2:1 compound:iron complex. The efficiencies in the rats and monkeys were calculated as set forth elsewhere (Bergeron et al., “Effects of C-4 Stereochemistry and C-4′ Hydroxylation on the Iron Clearing Efficiency and Toxicity of Desferrithiocin Analogs.” J. Med. Chem. 1999, 42, 2432-2440; Bergeron et al., “HBED: A Potential Alternative to Deferoxamine for Iron-Chelating Therapy.” Blood 1998, 91, 1446-1452).

[8] = test system: iron excretion; conditions: po 150 μmol/kg, cited from earlier work
[9] = test system: iron excretion; conditions: po 150 μmol/kg, cited from earlier work; remark: listed apart in the source
[10] = po once daily 384 μmol/kg/d (100 mg/kg/d), cited from earlier work
[11] = oral; cited from earlier work
[12] = Compound-plasma binding, rodent plasma; type: in vitro ADME; conditions: 37° C., 4 h, 3,000 MWCO filter
Description: (§1) Each sample was then passed through a Millipore Amicon Ultra regenerated cellulose filter (3,000 MWCO).

[13] = Compound-plasma binding, primate plasma; type: in vitro ADME; conditions: 37° C., 4 h, 3,000 MWCO filter
Description: as §1

[14] = test system: acetic acid-induced colitis; conditions: rat, in vivo; cited from earlier work
[15] = day 8, after 237 μmol/kg twice daily × 7 d

C[C@]1(C(=O)O)CSC(c2ncc(O)cc2O)=N1 [I-1, (S)-4,5-Dihydro-2-(3,5-dihydroxy-2-pyridinyl)-4-methyl-4-thiazolecarboxylic Acid]
LogPapp [1]: −1.68 | observed mole fraction maximum in Job's plot [2]: 0.669 | Exchange Rate (s^−1), hydrogen-deuterium exchange [3]: 3.3e-06 s⁻¹ | BUN [4, 15]: 13 ± 2 mg/dL | SCr [4, 15]: 0.5 ± 0.1 mg/dL | renal toxicity (Kim-1, BUN, SCr), summary [4]: some nephrotoxicity

C[C@]1(C(=O)O)CSC(c2ccc(O)cc2O)=N1 [compound 3]
LogPapp [1]: −1.05 | nephrotoxicity in patients [5]: induced proximal tubule nephrotoxicity | urinary Kim-1 ([6]; after three days): 69±47 ng/kg/24 h | BUN [6, 15]: 32 ± 13 mg/dL | SCr [6, 15]: 1.3 ± 1.0 mg/dL | urinary Kim-1 ([6]; end of the 7 d dosing period): 189±187 ng/kg/24 h | renal toxicity (Kim-1, BUN, SCr), summary ([6]; rats): some nephrotoxicity

C[C@]1(C(=O)O)CSC(c2ncccc2O)=N1 [compound 1, desferrithiocin]
Performance ratio (PR), mean ICEprimates/ICErodents [7]: 2.9 | LogPapp [1]: −1.77 | fold increase of urinary Kim-1 over baseline ([4]; after one day, 237 μmol/kg/dose twice daily po): ~10 fold | survival of dosing period [4]: None of the rats survived | SCr ([4]; two moribund rats sacrificed after four days of 237 μmol/kg/dose twice daily, normal 0.4-1): 5.1 ± 0.3 mg/dL | BUN ([4]; two moribund rats sacrificed after four days of 237 μmol/kg/dose twice daily, normal 9-30): 139 ± 8 mg/dL | Rodent Iron-Clearing Efficiency (%) ([8]; solubilized in 40% Cremophor RH-40/water): 5.5±3.2% | relative percentages of the iron excreted in the bile and urine ([8]; rodents, 40% Cremophor RH-40/water, bile/urine): 93/7 | Primate Iron-Clearing Efficiency (%) [9]: 16.1±8.5% | relative percentages of the iron excreted in the feces and urine ([9]; primates, feces/urine): 78/22 | mortality ([10]; planned 10-d, rats with normal iron stores): All of the rats were dead by day 5 | nephrotoxicity [10]: severely nephrotoxic | nephrotoxicity [11]: severe nephrotoxicity

COCCOCCOc1ccnc(C2=N[C@@](C)(C(=O)O)CS2)c1O [I-3, (S)-4,5-Dihydro-2-[3-hydroxy-4-(3,6-dioxaheptyloxy)-2-pyridinyl]-4-methyl-4-thiazolecarboxylic Acid]
LogPapp [1]: −1.38 | observed mole fraction maximum in Job's plot [2]: 0.677 | survival of dosing period [4]: All of the animals survived the compound dosing regimen | BUN and SCr [4]: well within the normal range | urinary Kim-1 excretion versus baseline (day 0) [4]: remained within error of that of the baseline (day 0) levels | renal toxicity (Kim-1, BUN, SCr), summary [4]: little to no impact on renal function | binding of the compound to plasma [12]: little, if any, binding | binding of the compound to plasma [13]: little, if any, binding

CC(=O)N(O)CCCCCNC(=O)CCC(=O)N(O)CCCCCNC(=O)CCC(=O)N(O)CCCCCN [DFO, desferrioxamine B mesylate]
effect on acetic acid-induced colitis [14]: prevent acetic acid-induced colitis

COCCOCCOc1cnc(C2=N[C@@](C)(C(=O)O)CS2)c(O)c1 [I-2, (S)-4,5-Dihydro-2-[3-hydroxy-5-(3,6-dioxaheptyloxy)-2-pyridinyl]-4-methyl-4-thiazolecarboxylic Acid]
LogPapp [1]: −1.59 | observed mole fraction maximum in Job's plot [2]: 0.676 | Exchange Rate (s^−1), hydrogen-deuterium exchange [3]: No change and none and No exchange | survival of dosing period [4]: All of the animals survived the compound dosing regimen | BUN and SCr [4]: well within the normal range | urinary Kim-1 excretion versus baseline (day 0) [4]: remained within error of that of the baseline (day 0) levels | renal toxicity (Kim-1, BUN, SCr), summary [4]: little to no impact on renal function
